Source: patent US10857119B2, “Composition containing monoacetyldiacylglycerol compound as active ingredient for inhibiting blood cancer or metastasis” (ENZYCHEM LIFESCIENCES CORPORATION, priority 2013, dated 2020)

Legend:
[1] = GLP toxicity test; cited from earlier work
rat IL-4 = assay: IL-4 secretion by ELISA in RBL-2H3 cells; assay type: cell-based; conditions: 10 μg/Ml EC-18
Method: The cells were treated with 0.1 μg/Ml to 10 μg/Ml EC-18 for 1 hour and antigen was processed. After the incubation for 18 hours at 37° C., the cell was removed to obtain a supernatant. The quantification of rat IL-4 which was present in the cell culture medium of RBL-2H3 cells was made by carrying out enzyme-linked immunosorbent assay (ELISA) according to the protocol indicated by the manufacturer using commercially purchasable monoclonal antibody (mAb) (BD Biosciences).

CCCCC/C=C\C/C=C\CCCCCCCC(=O)OC(COC(C)=O)COC(=O)CCCCCCCCCCCCCCC (centres unmarked) [EC-18, 1-palmitoyl-2-linoleoyl-3-acetylglycerol]
toxicity [1]: no-toxicity
inhibition at 10 µg/mL (rat IL-4): ≥ 60%
